Calls of active or inactive are those of the source. The rule behind the calls is not given here.
Assays:
Rattus norvegicus [1] = test: Diuretic activity in normotensive Wistar rat assessed as urine pH at 20 mg/kg, po administered via gavage after 8 hrs (reference value: 6.14 to 6.21); type: functional
Rattus norvegicus [2] = test: Diuretic activity in normotensive Wistar rat assessed as increase in urine volume excretion at 0.1 to 1 mg/kg, ip measured up to 8 hrs; type: functional, organism-based
Rattus norvegicus [3] = test: Diuretic activity in normotensive Wistar rat assessed as modification of urinary calcium excretion at 0.1 to 1 mg/kg, po administered via gavage measured up to 8 hrs; type: functional, organism-based
Rattus norvegicus [4] = test: Diuretic activity in normotensive Wistar rat assessed as modification of urinary potassium excretion at 0.1 to 1 mg/kg, po administered via gavage measured up to 8 hrs; type: ADME, organism-based; conditions: in vivo
Rattus norvegicus [5] = test: Diuretic activity in normotensive Wistar rat assessed as modification of urinary sodium excretion at 0.1 to 1 mg/kg, po administered via gavage measured up to 8 hrs; type: functional, organism-based
Rattus norvegicus [6] = test: Diuretic activity in normotensive Wistar rat assessed as modification of urinary chloride excretion at 0.1 to 1 mg/kg, po administered via gavage measured up to 8 hrs; type: functional, organism-based
Rattus norvegicus [7] = test: Diuretic activity in normotensive Wistar rat assessed as increase in urine volume excretion at 0.1 to 1 mg/kg, po administered via gavage measured up to 8 hrs; type: functional, organism-based
[8] = Anti-urolithic activity in synthetic urine assessed as decrease in absorbance at 10 mg/mL relative to control; type: functional; design: scale not given: the % may be the effect or the level left
[9] = Anti-urolithic activity in synthetic urine assessed as decrease in absorbance at 10 mg/mL after 60 mins relative to control; type: functional; design: scale not given: the % may be the effect or the level left
[10] = Anti-urolithic activity in synthetic urine assessed as decrease in absorbance at 10 mg/mL after 30 mins relative to control; type: functional; design: scale not given: the % may be the effect or the level left
[11] = Anti-urolithic activity in synthetic urine assessed as reduction in CaOx crystal formation at 10 mg/mL in presence of sodium oxalate after 60 mins by Neubauer counting chamber method relative to control; type: functional; design: scale not given: the % may be the effect or the level left
Rattus norvegicus [12] = test: Diuretic activity in normotensive Wistar rat assessed as increase in urinary chloride excretion at 10 mg/kg, po administered via gavage for 7 days; type: functional, organism-based
Rattus norvegicus [13] = test: Diuretic activity in normotensive Wistar rat assessed as urinary potassium excretion at 10 mg/kg, po administered via gavage after 8 hrs (reference value: 22.39 to 24.21 mmol/L); type: ADME, organism-based; conditions: in vivo
Rattus norvegicus [14] = test: Renal protective activity in spontaneous hypertensive Wistar rat assessed as reduction in hypertension-induced mesangial space disarrangement at 10 mg/kg, po administered via gavage for 7 days by hematoxylin and eosin staining based microscopic analysis; type: functional, organism-based
Rattus norvegicus [15] = test: Diuretic activity in normotensive Wistar rat assessed as increase in urinary sodium excretion at 10 mg/kg, po administered via gavage for 7 days; type: functional, organism-based
Rattus norvegicus [16] = test: Renal protective activity in spontaneous hypertensive Wistar rat assessed as reduction in hypertension-induced Bowman's capsule thickening at 10 mg/kg, po administered via gavage for 7 days by hematoxylin and eosin staining based microscopic analysis; type: functional, organism-based
Rattus norvegicus [17] = test: Diuretic activity in normotensive Wistar rat assessed as decrease in urinary calcium excretion at 10 mg/kg, po administered via gavage for 7 days; type: functional, organism-based
Rattus norvegicus [18] = test: Diuretic activity in spontaneous hypertensive Wistar rat assessed as increase in urine volume at 10 mg/kg, po administered via gavage for 7 days; type: functional, organism-based
Rattus norvegicus [19] = test: Diuretic activity in normotensive Wistar rat assessed as urinary sodium excretion at 10 mg/kg, po administered via gavage after 8 hrs (reference value: 61.82 to 80.81 mmol/L); type: functional
Rattus norvegicus [20] = test: Diuretic activity in normotensive Wistar rat assessed as increase in urinary potassium excretion at 10 mg/kg, po administered via gavage for 7 days; type: ADME, organism-based; conditions: in vivo, 168 h
Rattus norvegicus [21] = test: In vivo antioxidant activity in Wistar rat model of hypertension-induced oxidative stress assessed as reduction in reactive oxygen species generation in renal tissue at 10 mg/kg, po administered via gavage for 7 days by DCFH-DA probe based fluorimetric assay; type: functional, organism-based
Rattus norvegicus [22] = test: Diuretic activity in normotensive Wistar rat assessed as urine conductivity at 10 mg/kg, po administered via gavage after 8 hrs (reference value: 19.54 +/- 0.98 mS/cm); type: functional
Rattus norvegicus [23] = test: Diuretic activity in spontaneous hypertensive Wistar rat assessed as increase in urinary chloride excretion at 10 mg/kg, po administered via gavage for 7 days; type: functional, organism-based
Rattus norvegicus [24] = test: In vivo antioxidant activity in Wistar rat model of hypertension-induced oxidative stress assessed as reduction in nitrite level in renal tissue at 10 mg/kg, po administered via gavage for 7 days by Griess reagent based assay; type: functional, organism-based
Rattus norvegicus [25] = test: Diuretic activity in normotensive Wistar rat assessed as urinary calcium excretion at 10 mg/kg, po administered via gavage after 8 hrs (reference value: 5.93 to 6.87 mg/dl); type: functional
Rattus norvegicus [26] = test: Anti-urolithic activity in spontaneous hypertensive Wistar rats assessed as reduction in CaOx crystal formation in cumulative urine at 10 mg/kg, po administered via gavage in presence of sodium oxalate by Neubauer counting chamber method relative to control; type: functional; design: scale not given: the % may be the effect or the level left
Rattus norvegicus [27] = test: Diuretic activity in spontaneous hypertensive Wistar rat assessed as decrease in urinary calcium excretion at 10 mg/kg, po administered via gavage for 7 days; type: functional, organism-based
Rattus norvegicus [28] = test: Diuretic activity in normotensive Wistar rat assessed as urinary chloride excretion at 10 mg/kg, po administered via gavage after 8 hrs (reference value: 135.10 to 143.70 mmol/L); type: functional
Rattus norvegicus [29] = test: Renal protective activity in spontaneous hypertensive Wistar rat assessed as reduction in hypertension-induced glomerular size at 10 mg/kg, po administered via gavage for 7 days by hematoxylin and eosin staining based microscopic analysis; type: functional, organism-based
Rattus norvegicus [30] = test: Anti-urolithic activity in normotensive Wistar rats assessed as reduction in CaOx crystal formation in cumulative urine at 10 mg/kg, po administered via gavage in presence of sodium oxalate by Neubauer counting chamber method relative to control; type: functional; design: scale not given: the % may be the effect or the level left
Rattus norvegicus [31] = test: Diuretic activity in spontaneous hypertensive Wistar rat assessed as increase in urinary sodium excretion at 10 mg/kg, po administered via gavage for 7 days; type: functional, organism-based
Rattus norvegicus [32] = test: Diuretic activity in spontaneous hypertensive Wistar rat assessed as increase in urinary potassium excretion at 10 mg/kg, po administered via gavage for 7 days; type: ADME, organism-based; conditions: in vivo, 168 h
Rattus norvegicus [33] = test: Diuretic activity in normotensive Wistar rat assessed as increase in urine volume at 10 mg/kg, po administered via gavage for 7 days; type: functional, organism-based
Rattus norvegicus [34] = test: Diuretic activity in normotensive Wistar rat assessed as urinary sodium excretion at 3 mg/kg, po administered via gavage after 8 hrs (reference value: 61.82 to 80.81 mmol/L); type: functional
Rattus norvegicus [35] = test: Diuretic activity in normotensive Wistar rat assessed as urine conductivity at 3 mg/kg, po administered via gavage after 8 hrs (reference value: 19.54 +/- 0.98 mS/cm); type: functional
Rattus norvegicus [36] = test: Diuretic activity in normotensive Wistar rat assessed as urine pH at 3 mg/kg, po administered via gavage after 8 hrs (reference value: 6.14 to 6.21); type: functional
Rattus norvegicus [37] = test: Diuretic activity in normotensive Wistar rat assessed as urinary calcium excretion at 3 mg/kg, po administered via gavage after 8 hrs (reference value: 5.93 to 6.87 mg/dl); type: functional
Rattus norvegicus [38] = test: Diuretic activity in normotensive Wistar rat assessed as urinary chloride excretion at 3 mg/kg, po administered via gavage after 8 hrs (reference value: 135.10 to 143.70 mmol/L); type: functional

NS(=O)(=O)c1cc(C(=O)O)c(NCc2ccco2)cc1Cl [FUROSEMIDE]
pH (Rattus norvegicus [1]): 6.12

O=c1c(O)c(-c2ccc(O)cc2)oc2cc(O)cc(O)c12 [KAEMPFEROL]
Activity (Rattus norvegicus [2]): inactive
Activity (Rattus norvegicus [3]): inactive
Activity (Rattus norvegicus [4]): Non-Toxic
Activity (Rattus norvegicus [5]): inactive
Activity (Rattus norvegicus [6]): inactive
Activity (Rattus norvegicus [7]): inactive

O=C([O-])CC(O)(CC(=O)[O-])C(=O)[O-].[K+].[K+].[K+] [POTASSIUM CITRATE ANHYDROUS]
Activity [8]: 81.73%
Activity [9]: 64.85%
Activity [10]: 70.41%
Activity [11]: 65.02%

NS(=O)(=O)c1cc2c(cc1Cl)NCNS2(=O)=O [HYDROCHLOROTHIAZIDE]
Activity (Rattus norvegicus [12]): Active
Activity (Rattus norvegicus [13]): 41 to 44.8 mmol/L
Activity (Rattus norvegicus [14]): Active
Activity (Rattus norvegicus [15]): Active
Activity (Rattus norvegicus [16]): Active
Activity (Rattus norvegicus [17]): Active
Activity (Rattus norvegicus [18]): Active
Activity (Rattus norvegicus [19]): 175.7 to 185.7 mmol/L
Activity (Rattus norvegicus [20]): Toxic
Activity (Rattus norvegicus [21]): Active
Activity (Rattus norvegicus [22]): 23.62 - 27.3 mS/cm
Activity (Rattus norvegicus [23]): Active
Activity (Rattus norvegicus [24]): Active
Activity (Rattus norvegicus [25]): 4.78 to 5.24 mg/dL
Activity (Rattus norvegicus [26]): 92.9%
Activity (Rattus norvegicus [27]): Active
Activity (Rattus norvegicus [28]): 279.8 to 286.6 mmol/L
Activity (Rattus norvegicus [29]): Active
Activity (Rattus norvegicus [30]): 89.04%
Activity (Rattus norvegicus [31]): Active
Activity (Rattus norvegicus [32]): Toxic
Activity (Rattus norvegicus [33]): Active

N=C(N)NC(=O)c1nc(Cl)c(N)nc1N [AMILORIDE]
Activity (Rattus norvegicus [34]): 117.2 mmol/L
Activity (Rattus norvegicus [35]): 18.23 mS/cm
pH (Rattus norvegicus [36]): 6.29
Activity (Rattus norvegicus [37]): 5.7 mg/dL
Activity (Rattus norvegicus [38]): 170.5 mmol/L

Source: ChEMBL document CHEMBL4619763 (J Nat Prod, 2020)
